Laboratory results published in US20230285321A1, “COMPOSITIONS AND METHODS USING A COMBINATION OF AUTOPHAGY INDUCER AND HIGH PROTEIN FOR INDUCTION OF AUTOPHAGY” (SOCIETE DES PRODUITS NESTLE S.A., priority 2018, published 2023).

Tested on: LC3-II protein (muscle autophagy) in skeletal muscle (quadriceps)
Experiment: LC3-II western blot (normalized to GAPDH) in quadriceps of mice fed defined diets, with or without autophagy inducer in drinking water
Type: in vivo, C57b16/J mice
Conditions: 4 weeks ad libitum, 3 mM in drinking water
Experimental: 10-15 week-old C57b16/J mice were fed during ad libitum for 4 weeks with one of: a standard diet, a diet rich in proteins and poor in carbohydrates (high protein isocaloric), or a diet poor in proteins and rich in carbohydrates (low protein isocaloric). Each group was treated or not with 3 mM of autophagy inducer (e.g., spermidine) in the drinking water. Standard diet was composed of 16% fats (Soybean oil), 20% proteins (casein) and 64% carbohydrates (40% cornstarch, 14% dextrinized cornstarch, 10% sucrose). Low protein diet was composed of 16% fats (Soybean oil), 5% proteins (casein) and 79% carbohydrates (62% cornstarch, 10% dextrinized cornstarch, 7% sucrose). […]
Total protein lysates were extracted from 30-50 mg of tissues homogenized in 20 ml/g of RIPA buffer (150 mM sodium chloride, 50 mM Tris pH: 8, 1% Triton X-100, 0.5% deoxycolate, 0.1% SDS, protease inhibitors cocktail) with a tissue dissociator (gentleMACS Miltenyi Biotec). Protein concentration was determined by BCA assay, and samples were prepared adding 4X LDS sample buffer (Invitrogen). […] Membranes were incubated with LC3 (Novus Biologicals 2220) and GAPDH (Cell Signaling 2118) antibodies and detected with ECL substrates (Pierce). Protein quantification was performed by densitometric analysis of images using ImageJ software. […]

## NCCCCNCCCN [spermidine]
high-protein isocaloric diet (60% proteins), ***p<0.001
  muscle autophagy (LC3-II protein amount normalized to GAPDH): synergistically induces muscle autophagy
Low protein isocaloric diet (5% proteins)
  muscle autophagy (LC3-II protein amount normalized to GAPDH): inactive
